Source: patent publication US4677107A, “Anti-peptic ulcer agent” (Dainippon Pharmaceutical Co., Ltd., priority 1983, dated 1987)

Experiments:
[1] = tested on: brain noradrenaline turnover; details: U.S. Pat. No. 4,237,135 and U.K. Pat. No. 2,017,698; cited from earlier work
[2] = U.S. Pat. No. 4,237,135 and U.K. Pat. No. 2,017,698; cited from earlier work
[3] = U.S. Pat. No. 4,237,135 and U.K. Pat. No. 2,017,698; cited from earlier work; remark: listed apart in the source
[4] = U.S. Pat. No. 4,237,135 and U.K. Pat. No. 2,017,698; cited from earlier work; remark: listed apart in the source
[5] = Conversion after oral administration; assay type: in vivo; details: orally administered
[6] = tested on: mouse-killing behavior of olfactory bulb-ablated rats; details: U.S. Pat. No. 4,237,135 and U.K. Pat. No. 2,017,698; cited from earlier work
gastric secretion = test: Effect on gastric secretion in rats (pylorus ligation, total acid content); assay type: in vivo, male Wistar strain rats
Method: [III] Effect on gastric secretion in rats: Male Wistar strain rats (weighing, about 200 g) were fasted for 24 hours before experiment. The pylorus was ligated under ether anaesthesia. Four hours after the ligation, the stomach was removed under ether anaesthesia. The gastric content was collected and centrifuged, and the secretory volume, pH and acid content of the supernatant were measured. The acid content was measured by titrating to pH 7.0 with 0.02N NaOH using pH meter (Hitachi Horiba, M-5). The total acid content of the drug treated groups was compared with that of the control group, and thereby, the reduction percentage of acid content was calculated and then ED50, i.e. the dose required for 50% reduction of acid content, was determined by the usual graphic method. Drugs to be tested were suspended in 0.5% tragacanth solution and administered orally 30 minutes before the ligation. In the control group, a vehicle (0.5% tragacanth solution) was administered.

[7] = Toxicological study, LD50 mouse; details: in vivo, po, Mouse (ICR strain)
Method: (§1) Further, the toxicological study was conducted according to the conventional method on Compound B. The results are shown in Table 5.

[8] = Toxicological study, LD50 rat; details: in vivo, po, Rat (SD strain)
Method: as §1

[9] = tested on: ulceration induced by pylorus-ligation; test: Effect on the ulceration induced by pylorus-ligation in rats; assay type: in vivo, male Wistar strain rats
Method: [II] Effect on the ulceration induced by pylorus-ligation in rats: Male Wistar strain rats (weighing about 190 g) were fasted for 48 hours before experiment. The pylorus of each rat was ligated under ether anaesthesia according to the method of Shay et al. [cf. Shay, H., et al., Gastroenterology, 5, 43-61 (1945)]. Each of the animals was then allowed to stand abstained from food and water in a cage. After 18 hours, the animals were sacrificed under ether anaesthesia, and the stomachs were removed and cut open along the greater curvature. […] 4: marked ulcers more than two 5: perforated ulcer The ulcer index in drug treated groups was compared to that in the control group, and thereby, the inhibitory percentage was calculated and then ED50, i.e. the dose required for 50% inhibition of ulcer index, was determined by the usual graphic method. Drugs to be tested were suspended in 0.5% tragacanth solution and administered 30 minutes before the ligation. In the control group, a vehicle (0.5% tragacanth solution) was administered.

pupil size = test: Mydriatic action in rats; assay type: in vivo, male Wistar strain rats; details: for Percent mydriasis: one hour after administration, 3 mm dilation = 100 percent
Description: [IV] Mydriatic action in rats:
Male Wistar strain rats (weighing, 150-200 g) were used. Pupil size of the animals was twice measured microscopically just before and one hour after administration of drugs at a distance of 30 cm from the source of a constant light (30 W fluorescent light) according to the method of Pulewka [cf. Arch. exp. Path. U. Pharmakol., 168, 307 (1932)]. Based on the change between the first measured pupil size and the second measured pupil size, mydriasis percentage was calculated provided that mydriasis percentage is supposed to be 100 percent in case of 3 mm dilation of pupil size in diameter. Drugs to be tested were suspended in 0.5% tragacanth solution and administered. In the control group, a vehicle (0.5% tragacanth solution) was administered.

[10] = tested on: ulceration induced by exposure to stress (restraint and water immersion); test: Effect on the ulceration induced by exposure to stress (restraint and water immersion); assay type: in vivo, male Wistar strain rats; details: ulcer index = sum of length (mm) of lesions
Method: [I] Effect on the ulceration induced by exposure to stress (restraint and water immersion): Male Wistar strain rats (weighing, about 200 g) were placed in a stress cage which served to immobilize the animals therein and then immersed in a water bath of 23° C. to the height of xiphoid of the animals according to the method of Takagi et al. [cf. Takagi, K. and Okabe, S., Japan. J. Pharmacol., 18, 9 (1968)]. After 20 hours, the animals were sacrificed and the stomach was removed. The stomach was inflated with 13 ml of saline and placed in 5% formalin solution for 5 minutes. After washing with saline, the stomach was cut open along the greater curvature and the length (mm) of each lesion in the glandular portion was measured using a dissecting microscope (×12). The sum of the length (mm) of each lesions in a stomach was indicated as an ulcer index. In case of reference experiment using butylscopolamine bromide, a photograph of the mucosal surface of stomach was taken after the stomach was treated in the same manner as described above. The photograph was magnified by nine times, and the sum of the area (mm^2) of each lesions in a stomach was indicated as an ulcer index. The ulcer index in drug treated groups was compared with that in control group, and thereby, inhibitory percentage was calculated and then ED50 value, i.e., the dose required for 50% inhibition of the ulcer index, was determined by the usual graphic method. Drugs to be tested were suspended in 0.5% tragacanth solution and administered orally 30 minutes before the immersion. In the control group, a vehicle (0.5% tragacanth solution) was administered.

## CCN1CCN(c2cc(-c3ccccc3)c3ccccc3n2)CC1 [2-(4-ethyl-1-piperazinyl)-4-phenylquinoline]
[1]
  inhibition of brain noradrenaline turnover: inhibition of brain noradrenaline turnover
[2]
  anti-tetrabenazine activity: anti-tetrabenazine activity
[3]
  anti-reserpine activity: showed anti-reserpine activity
[4]
  anti-tremorine activity: has also anti-tremorine activity
[5]
  conversion on oral administration: partially converted into 2-(1-piperazinyl)-4-phenylquinoline
[6]
  suppression of mouse-killing behavior of olfactory bulb-ablated rats: suppression of mouse-killing behavior of olfactory bulb-ablated rats

## CCN1CCN(c2cc(-c3ccccc3)c3ccccc3n2)CC1.O=C(O)/C=C\C(=O)O.O=C(O)/C=C\C(=O)O [Compound B, 2-(4-ethyl-1-piperazinyl)-4-phenylquinoline dimaleate]
Gastric secretion; 0.5 mg/kg p.o.
  Total acid content Reduction %: 27.8%
Gastric secretion; 1 mg/kg p.o.
  Total acid content Reduction %: 24.0%
Gastric secretion; 2 mg/kg p.o.
  Total acid content Reduction %: 47.8%
Gastric secretion; 5 mg/kg p.o.
  Total acid content Reduction %: 60.2%
Gastric secretion; Rattus norvegicus, po, 30 minutes before ligation, rats, 4 hours after ligation, read-out: ED50 (dose required for 50% reduction of acid content)
  ED50: 2.8 mg/kg
[7]
  LD50: ~1200 mg/kg
[8]
  LD50: ~3600 mg/kg
[9]; 5 mg/kg p.o.
  Ulcer index Inhibitory %: 0%
[9]; 10 mg/kg p.o.
  Ulcer index Inhibitory %: 28.6%
[9]; 20 mg/kg p.o.
  Ulcer index Inhibitory %: 57.1%
[9]; 50 mg/kg p.o.
  Ulcer index Inhibitory %: 78.6%
[9]; Rattus norvegicus, po, 30 minutes before ligation, rats, 18 hours, ulcer index 0 to 5, read-out: ED50 (dose required for 50% inhibition of ulcer index)
  ED50: 19 mg/kg
Pupil size; 5 mg/kg p.o.
  Percent mydriasis: 0%
Pupil size; 10 mg/kg p.o.
  Percent mydriasis: 2.7%
Pupil size; 20 mg/kg p.o.
  Percent mydriasis: 4.7%
Pupil size; 50 mg/kg p.o.
  Percent mydriasis: 2.0%
Pupil size; 100 mg/kg p.o.
  Percent mydriasis: 2.7%
Pupil size; rats, up to 100 mg/kg
  mydriatic action (in words): did entirely not show any mydriatic action even in a dose of 100 mg/kg
[10]; 1 mg/kg p.o.
  Ulcer index Inhibitory %: 44.5%
[10]; 2 mg/kg p.o.
  Ulcer index Inhibitory %: 66.6%
[10]; 5 mg/kg p.o.
  Ulcer index Inhibitory %: 90.1%
[10]; Rattus norvegicus, po, 30 minutes before immersion, rats, read-out: ED50 (dose required for 50% inhibition of the ulcer index)
  ED50: 1.2 mg/kg
